Values after ≈ are worked out from the molar mass of the structure shown. Values belong to the compound of their own block, whether it stands above or below them.
Columns and labels:
[1] = biological target: T1, Cholesteryl ester transfer protein (Homo sapiens) (UniProt P11597); experiment: Inhibition of human cholesteryl ester transfer protein at 1 uM by scintillation proximity assay
T1 sequence (whole entry): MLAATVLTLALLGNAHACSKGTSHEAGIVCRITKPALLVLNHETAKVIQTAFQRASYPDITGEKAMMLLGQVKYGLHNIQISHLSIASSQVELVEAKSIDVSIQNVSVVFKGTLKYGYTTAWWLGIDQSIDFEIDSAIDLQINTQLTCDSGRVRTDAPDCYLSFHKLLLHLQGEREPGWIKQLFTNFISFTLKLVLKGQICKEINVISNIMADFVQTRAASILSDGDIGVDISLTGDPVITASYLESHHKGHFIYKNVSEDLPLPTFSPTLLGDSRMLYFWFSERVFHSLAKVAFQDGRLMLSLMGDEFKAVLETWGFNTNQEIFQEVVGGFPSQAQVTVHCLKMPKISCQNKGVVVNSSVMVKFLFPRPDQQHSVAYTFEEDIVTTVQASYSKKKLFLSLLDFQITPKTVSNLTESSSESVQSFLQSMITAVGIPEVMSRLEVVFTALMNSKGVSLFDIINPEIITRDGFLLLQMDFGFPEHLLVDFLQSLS

[2] = biological target: T2, Cholesteryl ester transfer protein (Homo sapiens, UniProt P11597); experiment: Inhibition of human cholesteryl ester transfer protein by scintillation proximity assay
T2 sequence (P11597 whole entry): T1 sequence (whole entry)

[3] = Aqueous solubility at pH 7.4; type: physicochemical; conditions: aqueous medium
[4] = Aqueous solubility at pH 2.0; type: physicochemical; conditions: aqueous medium
[5] = Half life in human liver microsomes; type: ADME, Microsome
[6] = biological target: T3, Cytochrome P450 3A4 (Homo sapiens, UniProt P08684); experiment: Inhibition of CYP3A4 […] isoform in human liver microsomes; type: ADME, Microsome
[7] = biological target: Cytochrome P450 2C9 (Homo sapiens, UniProt P11712); experiment: Inhibition of CYP2C9 in human liver microsomes; type: ADME, Microsome
[8] = Volume of distribution at steady state in rat at 10 mg/kg, po and 2 mg/kg, iv; type: ADME, organism-based; conditions: in vivo, read-out: Vdss
[9] = biological target: T2, Cholesteryl ester transfer protein; experiment: Inhibition of cholesteryl ester transfer protein in human plasma by [3H]CE HDL assay; type: cell-free
[10] = Oral bioavailability in rat at 10 mg/kg; type: ADME, organism-based; conditions: in vivo
[11] = biological target: Cytochrome P450 2D6 (Homo sapiens, UniProt P10635); experiment: Inhibition of CYP2D6 in human liver microsomes; type: ADME, Microsome
[12] = tested on: Mus musculus; experiment: Increase in HDL cholesterol level in normal chow diet fed female CETP transgenic mouse at 3 mg/kg, po after 5 days; type: functional
[13] = biological target: T4, Cytochrome P450 1A2 (Homo sapiens, UniProt P05177); experiment: Inhibition of CYP1A2 in human liver microsomes; type: ADME, Microsome
T4 sequence (P05177 whole entry): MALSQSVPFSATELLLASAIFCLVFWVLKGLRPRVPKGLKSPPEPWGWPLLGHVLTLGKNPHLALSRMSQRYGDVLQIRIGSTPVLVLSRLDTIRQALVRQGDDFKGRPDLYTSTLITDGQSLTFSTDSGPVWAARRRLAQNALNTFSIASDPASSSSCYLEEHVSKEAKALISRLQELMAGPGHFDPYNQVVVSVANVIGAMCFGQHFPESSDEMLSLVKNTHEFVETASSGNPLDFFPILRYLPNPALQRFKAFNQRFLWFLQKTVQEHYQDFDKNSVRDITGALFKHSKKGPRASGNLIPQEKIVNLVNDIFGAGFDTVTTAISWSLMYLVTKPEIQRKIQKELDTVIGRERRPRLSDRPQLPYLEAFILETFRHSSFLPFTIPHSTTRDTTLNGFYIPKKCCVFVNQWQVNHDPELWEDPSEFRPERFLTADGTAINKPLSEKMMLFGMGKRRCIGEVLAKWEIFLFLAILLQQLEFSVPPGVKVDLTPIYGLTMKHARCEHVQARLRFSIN

[14] = biological target: Cytochrome P450 2C19 (Homo sapiens, UniProt P33261); experiment: Inhibition of CYP2C19 in human liver microsomes; type: ADME, Microsome
[15] = AUC in rat at 10 mg/kg, po and 2 mg/kg, iv; type: ADME, organism-based; conditions: plasma
[16] = tested on: Mus musculus; experiment: Increase in HDL cholesterol level in normal chow diet fed female CETP transgenic mouse at 10 mg/kg, po after 5 days; type: functional
[17] = Tmax in rat at 10 mg/kg, po and 2 mg/kg, iv; type: ADME, organism-based; conditions: in vivo
[18] = tested on: Mus musculus; experiment: Increase in HDL cholesterol level in normal chow diet fed male CETP transgenic mouse at 10 mg/kg, po after 5 days; type: functional
[19] = tested on: Mus musculus; experiment: Increase in HDL cholesterol level in normal chow diet fed male CETP transgenic mouse at 3 mg/kg, po after 5 days; type: functional
[20] = tested on: Mus musculus; experiment: Increase in HDL cholesterol level in normal chow diet fed male CETP transgenic mouse at 30 mg/kg, po after 5 days; type: functional
[21] = tested on: Mus musculus; experiment: Increase in HDL cholesterol level in normal chow diet fed female CETP transgenic mouse at 30 mg/kg, po after 5 days; type: functional
[22] = tested on: Hamster; experiment: Increase in HDL cholesterol level in high fat diet fed hamster at 10 mg/kg, po after 5 days; type: functional, Cricetinae
[23] = tested on: Hamster; experiment: Increase in HDL cholesterol level in high fat diet fed hamster at 30 mg/kg, po after 5 days; type: functional, Cricetinae
[24] = biological target: T3, Cytochrome P450 3A4; experiment: Inhibition of CYP3A4 tissue isoform in human liver microsomes; type: ADME, Microsome
[25] = Clearance in rat at 10 mg/kg, po and 2 mg/kg, iv; type: ADME, organism-based; conditions: in vivo

T3 sequence (P08684 whole entry, canonical isoform): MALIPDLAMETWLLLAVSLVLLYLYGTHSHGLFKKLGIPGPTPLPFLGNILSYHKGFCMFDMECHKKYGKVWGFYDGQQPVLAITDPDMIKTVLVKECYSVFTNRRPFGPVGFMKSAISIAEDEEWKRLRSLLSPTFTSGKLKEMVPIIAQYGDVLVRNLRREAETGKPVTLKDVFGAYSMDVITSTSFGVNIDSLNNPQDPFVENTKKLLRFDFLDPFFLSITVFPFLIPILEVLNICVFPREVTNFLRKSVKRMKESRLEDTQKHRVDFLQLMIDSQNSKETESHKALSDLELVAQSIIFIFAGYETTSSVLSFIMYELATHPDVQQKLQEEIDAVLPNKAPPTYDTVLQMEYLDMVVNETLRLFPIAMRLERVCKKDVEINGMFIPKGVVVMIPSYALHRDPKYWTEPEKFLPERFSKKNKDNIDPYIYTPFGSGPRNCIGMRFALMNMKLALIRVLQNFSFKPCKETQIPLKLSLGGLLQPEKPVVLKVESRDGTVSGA
Sequence of Cytochrome P450 2D6 (P10635 whole entry): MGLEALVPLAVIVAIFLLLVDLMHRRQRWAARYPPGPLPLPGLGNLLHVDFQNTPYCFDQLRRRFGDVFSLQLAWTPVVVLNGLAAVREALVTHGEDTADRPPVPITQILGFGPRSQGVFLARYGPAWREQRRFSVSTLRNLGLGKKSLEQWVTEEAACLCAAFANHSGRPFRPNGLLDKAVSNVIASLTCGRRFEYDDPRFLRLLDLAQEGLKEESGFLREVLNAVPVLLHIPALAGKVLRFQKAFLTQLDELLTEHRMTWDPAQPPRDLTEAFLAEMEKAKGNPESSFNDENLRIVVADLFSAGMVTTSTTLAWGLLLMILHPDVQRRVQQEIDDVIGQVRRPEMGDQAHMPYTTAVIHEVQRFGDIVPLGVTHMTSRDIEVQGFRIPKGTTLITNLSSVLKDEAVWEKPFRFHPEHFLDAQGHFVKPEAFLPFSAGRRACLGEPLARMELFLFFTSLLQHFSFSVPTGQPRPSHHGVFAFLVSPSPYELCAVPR
Sequence of Cytochrome P450 2C9 (P11712 whole entry): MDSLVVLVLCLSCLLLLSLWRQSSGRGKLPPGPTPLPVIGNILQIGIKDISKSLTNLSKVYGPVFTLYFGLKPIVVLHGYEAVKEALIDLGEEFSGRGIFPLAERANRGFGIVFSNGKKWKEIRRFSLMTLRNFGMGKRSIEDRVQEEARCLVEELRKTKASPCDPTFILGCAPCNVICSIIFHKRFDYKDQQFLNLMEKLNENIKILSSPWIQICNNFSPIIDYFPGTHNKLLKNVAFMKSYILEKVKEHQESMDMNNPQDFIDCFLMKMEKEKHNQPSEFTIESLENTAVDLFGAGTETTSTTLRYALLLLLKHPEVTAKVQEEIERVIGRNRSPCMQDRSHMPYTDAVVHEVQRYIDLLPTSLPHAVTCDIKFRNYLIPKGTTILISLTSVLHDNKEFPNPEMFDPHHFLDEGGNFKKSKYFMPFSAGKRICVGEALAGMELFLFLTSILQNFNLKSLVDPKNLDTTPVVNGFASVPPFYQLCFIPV
Sequence of Cytochrome P450 2C19 (P33261 whole entry): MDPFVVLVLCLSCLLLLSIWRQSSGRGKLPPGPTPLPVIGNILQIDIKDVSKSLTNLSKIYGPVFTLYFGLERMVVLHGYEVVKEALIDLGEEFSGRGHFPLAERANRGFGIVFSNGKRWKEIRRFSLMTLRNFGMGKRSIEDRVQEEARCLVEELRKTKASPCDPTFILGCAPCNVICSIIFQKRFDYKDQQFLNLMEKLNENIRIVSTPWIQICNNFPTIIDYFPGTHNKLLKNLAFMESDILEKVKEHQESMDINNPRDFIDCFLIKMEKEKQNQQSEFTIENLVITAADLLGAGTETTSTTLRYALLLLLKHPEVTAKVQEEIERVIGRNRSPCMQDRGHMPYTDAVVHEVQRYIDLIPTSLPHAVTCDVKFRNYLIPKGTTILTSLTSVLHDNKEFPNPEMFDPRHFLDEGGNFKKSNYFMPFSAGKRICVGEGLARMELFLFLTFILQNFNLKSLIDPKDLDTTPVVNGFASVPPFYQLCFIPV

inhibition [1]: 86%
IC50 [2]: 129 nM
SMILES: CC(C)C(O)CN1c2cccc(-c3cccc(OC(F)(F)F)c3)c2OCC1c1cccc(OC(F)(F)C(F)F)c1 (mixture of isomers)

inhibition [1]: 5%
SMILES: O=C(CN1c2cccc(-c3cccc(OC(F)(F)F)c3)c2OC[C@@H]1c1cccc(OC(F)(F)C(F)F)c1)C(F)(F)F

inhibition [1]: 55%
SMILES: O[C@@H](CF)CN1c2cccc(-c3cccc(OC(F)(F)F)c3)c2OC[C@@H]1c1cccc(OC(F)(F)C(F)F)c1

inhibition [1]: 10%
SMILES: OCCCN1c2cccc(-c3cccc(OC(F)(F)F)c3)c2OCC1c1cccc(OC(F)(F)C(F)F)c1 (racemic)

inhibition [1]: 27%
SMILES: OC[C@@H](O)CN1c2cccc(-c3cccc(OC(F)(F)F)c3)c2OC[C@@H]1c1cccc(OC(F)(F)C(F)F)c1

inhibition [1]: 28%
SMILES: C[C@@H](O)CN1c2cccc(-c3cccc(OC(F)(F)F)c3)c2OC[C@@H]1c1cccc(OC(F)(F)C(F)F)c1

inhibition [1]: 2%
SMILES: NCCN1c2cccc(-c3cccc(OC(F)(F)F)c3)c2OCC1c1cccc(OC(F)(F)C(F)F)c1 (racemic)

inhibition [1]: 24%
SMILES: CCN1c2cccc(-c3cccc(OC(F)(F)F)c3)c2OCC1c1cccc(OC(F)(F)C(F)F)c1 (racemic)

inhibition [1]: 77%
half-life [5]: 0.35 h
SMILES: O[C@H](CF)CN1c2cccc(-c3cccc(OC(F)(F)F)c3)c2OC[C@@H]1c1cccc(OC(F)(F)C(F)F)c1

inhibition [1]: 16%
SMILES: COC(=O)N1c2cccc(-c3cccc(OC(F)(F)F)c3)c2OCC1c1cccc(OC(F)(F)C(F)F)c1 (racemic)

IC50 [6]: > 100000 nM
IC50 [7]: > 100000 nM
Vd [8]: 0.73 L/kg
IC50 [9]: 1000 nM
bioavailability [10]: 53%
IC50 [11]: > 100000 nM
IC50 [13]: > 100000 nM
IC50 [14]: > 100000 nM
AUC [15]: 19800 ng·h/mL
inhibition [1]: 91%
solubility [3]: 2.7 µg/mL (≈ 4.5 µM)
Tmax [17]: 11.5 h
half-life [5]: 1.03 h
solubility [4]: 11 µg/mL (≈ 18.4 µM)
IC50 [24]: > 100000 nM
clearance [25]: 4.6 mL/min/kg
SMILES: O[C@@H](CN1c2cccc(-c3cccc(OC(F)(F)F)c3)c2OC[C@@H]1c1cccc(OC(F)(F)C(F)F)c1)C(F)(F)F
Activity [12]: 4%
Activity [16]: 8%
Activity [18]: 10%
Activity [19]: 11%
Activity [20]: 28%
Activity [21]: 24%
Activity [22]: 9%
Activity [23]: 16%

inhibition [1]: 29%
SMILES: CC(C)(O)CN1c2cccc(-c3cccc(OC(F)(F)F)c3)c2OCC1c1cccc(OC(F)(F)C(F)F)c1 (racemic)

inhibition [1]: 50%
IC50 [2]: 88 nM
SMILES: C[C@H](O)CN1c2cccc(-c3cccc(OC(F)(F)F)c3)c2OC[C@@H]1c1cccc(OC(F)(F)C(F)F)c1

inhibition [1]: 29%
SMILES: OCCN1c2cccc(-c3cccc(OC(F)(F)F)c3)c2OCC1c1cccc(OC(F)(F)C(F)F)c1 (racemic)

inhibition [1]: 14%
SMILES: O[C@@H](CN1c2cccc(-c3cccc(OC(F)(F)F)c3)c2OC[C@H]1c1cccc(OC(F)(F)C(F)F)c1)C(F)(F)F

inhibition [1]: 25%
SMILES: COCCN1c2cccc(-c3cccc(OC(F)(F)F)c3)c2OCC1c1cccc(OC(F)(F)C(F)F)c1 (racemic)

inhibition [1]: 26%
SMILES: O[C@H](CN1c2cccc(-c3cccc(OC(F)(F)F)c3)c2OC[C@H]1c1cccc(OC(F)(F)C(F)F)c1)C(F)(F)F

inhibition [1]: 96%
IC50 [2]: 45 nM
SMILES: OC(CN1c2cccc(-c3cccc(OC(F)(F)F)c3)c2OCC1c1cccc(OC(F)(F)C(F)F)c1)C(F)(F)F (mixture of isomers)

inhibition [1]: 5%
SMILES: CC(=O)CN1c2cccc(-c3cccc(OC(F)(F)F)c3)c2OC[C@@H]1c1cccc(OC(F)(F)C(F)F)c1

inhibition [1]: 39%
SMILES: CCCN1c2cccc(-c3cccc(OC(F)(F)F)c3)c2OCC1c1cccc(OC(F)(F)C(F)F)c1 (racemic)

inhibition [1]: 9%
SMILES: CN(C)CCN1c2cccc(-c3cccc(OC(F)(F)F)c3)c2OCC1c1cccc(OC(F)(F)C(F)F)c1 (racemic)

inhibition [1]: 0%
SMILES: FC(F)C(F)(F)Oc1cccc(C2COc3c(-c4cccc(OC(F)(F)F)c4)cccc3N2CCN2CCOCC2)c1 (racemic)

inhibition [1]: 23%
SMILES: O[C@H](CN1c2cccc(-c3cccc(OC(F)(F)F)c3)c2OC[C@@H]1c1cccc(OC(F)(F)C(F)F)c1)C(F)(F)F

The next lines start with the compound.

SMILES: O[C@@H](CN1c2cccc(-c3cc(F)cc(F)c3)c2OC[C@@H]1c1cccc(OC(F)(F)F)c1)C(F)(F)F
inhibition [1]: 100%

SMILES: OC(CN1c2cccc(-c3cccc(OC(F)(F)F)c3)c2OCC1c1cccc(OC(F)(F)F)c1)C(F)(F)F (mixture of isomers)
inhibition [1]: 65%
IC50 [2]: 107 nM

SMILES: CC1(C)OC[C@@H](CN2c3cccc(-c4cccc(OC(F)(F)F)c4)c3OC[C@@H]2c2cccc(OC(F)(F)C(F)F)c2)O1 (mixture of isomers)
inhibition [1]: 25%

SMILES: O[C@@H](CN1c2cccc(-c3cccc(OC(F)(F)F)c3)c2OC[C@@H]1c1cccc(OC(F)(F)F)c1)C(F)(F)F
inhibition [1]: 69%
IC50 [2]: 133 nM

SMILES: O[C@@H](CN1c2cccc(-c3cccc(OC(F)(F)F)c3)c2CC[C@@H]1c1cccc(OC(F)(F)C(F)F)c1)C(F)(F)F
solubility [3]: < 1 µg/mL
solubility [4]: < 1 µg/mL

SMILES: CCOc1cccc(C2COc3c(-c4cccc(OC(F)(F)F)c4)cccc3N2CC(O)C(F)(F)F)c1 (mixture of isomers)
inhibition [1]: 56%

SMILES: OC(CN1c2cccc(-c3cccc(OC(F)(F)F)c3)c2OCC1c1cccc(Cl)c1)C(F)(F)F (mixture of isomers)
inhibition [1]: 62%

SMILES: OC(CN1c2cccc(-c3cccc(F)c3)c2OCC1c1cccc(OC(F)(F)C(F)F)c1)C(F)(F)F (mixture of isomers)
inhibition [1]: 79%

SMILES: O[C@@H](CN1c2cccc(-c3cc(C(F)(F)F)cc(C(F)(F)F)c3)c2OC[C@@H]1c1cccc(OC(F)(F)C(F)F)c1)C(F)(F)F
inhibition [1]: 59%

SMILES: O[C@@H](CN1c2cccc(-c3cc(F)c(F)c(F)c3)c2OC[C@@H]1c1cccc(OC(F)(F)C(F)F)c1)C(F)(F)F
inhibition [1]: 101%

SMILES: OC(CN1c2cccc(-c3cccc(OC(F)(F)F)c3)c2OCC1c1cccc(C(F)(F)F)c1)C(F)(F)F (mixture of isomers)
inhibition [1]: 37%

SMILES: O[C@@H](CN1c2cccc(-c3cc(F)c(F)c(F)c3)c2OC[C@@H]1c1cccc(OC(F)(F)F)c1)C(F)(F)F
inhibition [1]: 94%

SMILES: O[C@@H](CN1c2cccc(-c3cc(F)cc(F)c3)c2OC[C@@H]1c1cccc(OC(F)(F)C(F)F)c1)C(F)(F)F
inhibition [1]: 100%

SMILES: OC(CN1c2cccc(-c3cccc(OC(F)(F)F)c3)c2OCC1c1ccc(OC(F)(F)C(F)F)cc1)C(F)(F)F (mixture of isomers)
inhibition [1]: 33%

SMILES: OC(CN1c2cccc(-c3cccc(OC(F)(F)F)c3)c2OCC1c1ccc(OC(F)(F)F)cc1)C(F)(F)F (mixture of isomers)
inhibition [1]: 38%

SMILES: OC(CN1c2cccc(-c3cccc(OC(F)(F)F)c3)c2OCC1c1ccccc1)C(F)(F)F (mixture of isomers)
inhibition [1]: 43%

SMILES: OC(CN1c2cccc(-c3cccc(OC(F)(F)F)c3)c2OCC1c1ccccc1OC(F)(F)C(F)F)C(F)(F)F (mixture of isomers)
inhibition [1]: 6%

SMILES: OC(CN1c2cccc(-c3cccc(OC(F)(F)F)c3)c2OCC1c1ccc2c(c1)OC(F)(F)O2)C(F)(F)F (mixture of isomers)
inhibition [1]: 48%
IC50 [2]: 271 nM

SMILES: OC(CN1c2cccc(-c3cccc(OC(F)(F)F)c3)c2OCC1c1cccc(SC(F)(F)F)c1)C(F)(F)F (mixture of isomers)
inhibition [1]: 68%

SMILES: COc1cccc(C2COc3c(-c4cccc(OC(F)(F)F)c4)cccc3N2CC(O)C(F)(F)F)c1 (mixture of isomers)
inhibition [1]: 29%
